Measured values taken from ChEMBL document CHEMBL1146727, “Stereodefined and polyunsaturated inhibitors of histone deacetylase based on (2E,4E)-5-arylpenta-2,4-dienoic acid hydroxyamides” (Bioorg Med Chem Lett, 2004).

Biological target: Histone deacetylase
Assay: Inhibition of histone deacetylase (HDAC) activity in HeLa cell nuclear extract
Assay type: cell-based, Homo sapiens

Row | Compound | IC50
1 | O=C(/C=C/C=C/c1ccc(Cl)cc1)NO | 252 nM
2 | CC(/C=C/C(=O)O)=C\c1ccc(NS(=O)(=O)c2ccc(Cl)cc2)cc1 | > 100000 nM
3 | CC(CCC(=O)NO)Cc1ccc(NS(=O)(=O)c2ccc(Cl)cc2)cc1 (configuration not stated) | 1170 nM
4 | CC(/C=C/C(=O)NO)=C\c1ccc(NS(=O)(=O)c2ccccc2)cc1 | 172 nM
5 | CC(/C=C/C(=O)NO)=C\c1ccc(NS(=O)(=O)c2ccc(Cl)cc2)cc1 | 49 nM
6 | CC(/C=C/C(=O)NO)=C\c1ccc(Cl)cc1 | 302 nM
7 | COc1ccc(S(=O)(=O)Nc2ccc(/C=C/C=C/C(=O)NO)cc2)cc1 | 10400 nM
8 | COc1ccc(S(=O)(=O)Nc2ccc(/C=C(C)/C=C/C(=O)NO)cc2)cc1 | 74 nM
9 | CC(/C=C/C(=O)NO)=C\c1ccc(N(C)C)cc1 | 788 nM
10 | CN(C)c1ccc(/C=C/C=C/C(=O)NO)cc1 | 1700 nM
11 | O=C(CCCCc1ccc(Cl)cc1)NO | 2580 nM
12 | O=C(/C=C/C=C/c1ccccc1)NO | 279 nM
